Data on one molecule can be found in US11976116B2, “Salvage chimeric antigen receptor systems” (2seventy bio, Inc., priority 2016, dated 2024).

Data set [1] relates to K562-BCMA positive cells. Briefly: Cytotoxicity assay, CAR T cells co-cultured with K562-BCMA positive and negative cells. The format is cell-based. The settings on record: 20 nM AP21967, 24 hours, E:T 5:1. The method, then: (§1) Human PBMCs (1×10^6 cells/mL) were activated with soluble anti-CD3 and anti-CD28 antibodies (50 ng/ml) on day 0. After 24 hr incubation, 1×10^6 cells were transduced with lentivirus encoding either an anti-BCMA CAR or an anti-BCMA salvage CAR. The transduced cells were washed and resuspended at 0.3×10^6 cells/mL growth medium on day 3. The CAR T cells were cultured for 7 days with IL-2 (250 IU/mL) containing medium changed every other day.
The cytotoxic potential of anti-BCMA CAR T cells and anti-BCMA salvage CAR T cells was analyzed by co-culturing day 10 CAR T cells (E, effector cells) with a 50:50 mixture of K562-BCMA positive cells (GFP positive) (T, target cells) and K562-BCMA negative cells (BFP positive) for 24 hours at an E:T ratio of 5:1. Cells were co-cultured with or without 20 nM AP21967 (a non-immunosuppressive rapamycin analog). The ratio of K562-BCMA positive cells to K562-BCMA negative cells is a direct readout of CAR T cell cytotoxicity.

Data set [2] has as its system K562-BCMA positive cells. Briefly: IFNγ release assay (ELISA), CAR T cells co-cultured with K562-BCMA positive cells. The format is cell-based. The settings on record: 24 hours, E:T 1:1. The method, then: as §1
Antigen dependent cytokine secretion was analyzed by co-culturing day 10 CAR T cells with K562-BCMA positive cells for 24 hours at an E:T ratio of 1:1 (with or without AP21967). Culture supernatants were collected and IFNγ production was analyzed using the IFNγ ELISA kit (eBiosciences).
(In general: ELISA stands for enzyme-linked immunosorbent assay.)

Data set [3] concerns BCMA negative, CD19 positive Nalm-6 cells. Briefly: Cytotoxicity assay, anti-BCMA salvage CAR T cells co-cultured with Nalm-6-CD19 positive and K562-CD19 negative cells. The settings on record: 250 ng pre-loaded receptor, with or without 100 nM AP21967, 24 hr, E:T 2:1. The format is cell-based. The text has this: 293 T cells were transduced with lentivirus encoding the dimerizable anti-CD19 salvage receptor to generate a stable source of secreted anti-CD19-scFv-FKBP12 proteins (FIG. 1, right panel). Supernatant containing soluble anti-CD19 salvage receptor polypeptides (anti-CD19 scFV FKBP12) was collected from stable 293T-710 cells and filtered.
The anti-CD19 salvage receptor forms a heterodimer with the anti-BCMA salvage CAR in the presence of AP21967 (FIG. 3A). The cytotoxic potential of anti-BCMA salvage CAR T cells (E) against BCMA negative, CD19 positive Nalm-6 cells (T) was analyzed by co-culturing CAR T cells with a 50:50 mixture of Nalm-6-CD19 positive cells (GFP positive) and K562-CD19 negative cells (BFP positive) for 24 hours at an E:T ratio of 2:1. The co-cultures were treated with vehicle or 100 nM AP21967 and with different volumes of 293T-710 cell supernatant (0 μl, 10 μl, or 30 μl). […] FIG. 3B.
T cells were transduced with lentiviral vectors encoding an anti-BCMA CAR or anti-BCMA salvage CAR. The CART cells were co-cultured with a 50:50 mixture of CD19 positive Nalm-6 cells expressing GFP and CD19 negative K562 cells expressing BFP, in the presence or absence of 250 ng pre-loaded dimerizable anti-CD19 salvage receptor, with or without 100 nM AP21967, for 24 hr, at a 2:1 E:T ratio. […] FIG. 5. AP21967 was not required to trigger the CD19 specific cytotoxicity. […]

The conditions of data set [4]: target and assay not given; cited from earlier work.

`CO[C@H]1[C@@H](O)[C@H](C)C[C@H](C)/C=C/C=C/C=C(\C)[C@@H](c2c[nH]c3c(C)cccc23)C[C@@H]2CC[C@@H](C)[C@@](O)(O2)C(=O)C(=O)N2CCCC[C@H]2C(=O)O[C@H]([C@H](C)C[C@@H]2CC[C@@H](O)[C@H](OC)C2)C[C@H](O)[C@H](C)/C=C(\C)[C@H]1O` [AP21967, C-16-(S)-7-methylindolerapamycin]: the “effect of AP21967 on cytotoxicity” value in the data set with K562-BCMA positive cells [1] is listed as “no effect on cytotoxicity”. In addition, the “effect of AP21967 in the IFNγ release co-culture” value in the data set on K562-BCMA positive cells [2] is reported as “did not substantially affect cytotoxicity”. For the same molecule, the “requirement of AP21967 for CD19 specific cytotoxicity” value in data set [3] is recorded as “not required”. The IC50 in data set [4] was 10 nM.

A word on the IC50: it is the midpoint of a concentration-inhibition curve.
